Like-named read-outs stand apart in the source and are kept apart here.
Assay: Solubility testing of (Z)-endoxifen in single solvents
Type: physicochemical
Details: for solubility at 15 min: 25 °C; for solubility at 15 min / solubility: thermodynamic from solid
Procedure: To test the solubility of (Z)-endoxifen in varying conditions, 10 mg of (Z)-endoxifen was added to a stoppered tube, and 0.01 ml of the selected solvent was added (1000 mg/ml solution). The tube was shaken vigorously for 1 minute and then incubated at a constant temperature of 25.0° C. for 15 minutes. If the solid was not completed dissolved, the tube was shaken again and placed at the constant temperature of 25.0° C. for another 15 minutes. If the solid was completely dissolved at this step, it was considered to be very soluble in the selected solvent system. If the solid was not dissolved by this step, another 0.09 ml was added (yielding a 100 mg/ml solution) and an attempt to further dissolve the solid was made by the same steps of shaking and incubating twice over as described previously. If the solid was completely dissolved at this step, it was considered freely soluble. If the solid was not dissolved by this step another 0.2 ml was added (yielding a 33.3 mg/ml solution) and an attempt to further dissolve the solid was made by the same steps of shaking and incubating twice over as described previously. If the solid was completely dissolved at this step, it was considered soluble. If the solid was not dissolved by this step another, 0.7 ml was added (yielding a 10 mg/ml solution) and an attempt to further dissolve the solid was made by the same steps of shaking and incubating twice over as described previously. If the solid was completely dissolved at this step, it was considered sparingly soluble. If the solid was not dissolved by this step the sample was considered to be slightly soluble or very slightly soluble and the solution was heated until the boiling point of the solvent system (max 100° C.) under stirring with a rate of 0.5° C. per minute temperature ramp rate to verify the solubility at high temperatures. The hot solution was after cooled to room temperature with a cooling rate of 0.5° C. per minute to verify if the sample had precipitated after up to 18 hours under magnetic stirring. The same procedure was also used for the solvent mixture solubility tests. The concentrations investigated for the solvent mixture stability were 40 mg/ml and 100 mg/ml. Some solutions in the following example were precipitated by cooling of the solution from a temperature between 50-100° C. to between 10-25° C. at a rate ranging from −0.2 to −0.5° C./minute resulting in a precipitate.

[1] = solvent butyl acetate, 100 mg/mL
[2] = solvent ethyl acetate, 100 mg/mL
[3] = solvent methyl isobutyl ketone (4-methyl-2-pentanone), 100 mg/mL
[4] = solvent methyl isobutyl ketone (4-methyl-2-pentanone), 200 mg/mL

CC/C(=C(\c1ccc(O)cc1)c1ccc(OCCNC)cc1)c1ccccc1 [(Z)-endoxifen, (Z)-4-(1-(4-(2-(methylamino)ethoxy)phenyl)-2-phenylbut-1-enyl)phenol]
44 °C: Solubility HT (10 mg/mL): Clear point (solvent 2-propanol, 10 mg/mL) | Solubility HT (10 mg/mL): Clear point (solvent methyl isobutyl ketone (4-methyl-2-pentanone), 10 mg/mL)
77.8 °C: Solubility HT (20 mg/mL): Clear point (solvent toluene, 20 mg/mL)
94.5 °C: Solubility HT (100 mg/mL): Clear point [1]
56.8 °C: Solubility HT (20 mg/mL): Clear point (solvent butyl acetate, 20 mg/mL)
66 °C: Solubility HT (100 mg/mL): Clear point (solvent ethanol, 100 mg/mL) | Solubility HT (10 mg/mL): Clear point (solvent toluene, 10 mg/mL)
< 10000 µg/mL: solubility at 15 min (acetonitrile, organic solvent or mixture, acetonitrile, room temperature, read-out: Solubility) | solubility at 15 min (acetonitrile, organic solvent or mixture, solvent acetonitrile, room temperature, read-out: Solubility at RT) | solubility (butyl methyl ether, organic solvent or mixture, solvent butyl methyl ether, 10 mg/mL, high temperature, read-out: Solubility HT (10 mg/mL): Sol. HT) | solubility at 15 min (heptane, organic solvent or mixture, heptane, room temperature, read-out: Solubility) | solubility at 15 min (heptane, organic solvent or mixture, solvent heptane, room temperature, read-out: Solubility at RT) | solubility (heptane, organic solvent or mixture, heptane, high temperature, read-out: Solubility) | solubility (heptane, organic solvent or mixture, solvent heptane, 10 mg/mL, high temperature, read-out: Solubility HT (10 mg/mL): Sol. HT) | solubility at 15 min (t-butyl methyl ether, organic solvent or mixture, t-butyl methyl ether, room temperature, read-out: Solubility) | solubility (t-butyl methyl ether, organic solvent or mixture, t-butyl methyl ether, high temperature, read-out: Solubility) | solubility at 15 min (water, water, solvent water, room temperature, read-out: Solubility at RT) | solubility at 15 min (water, water, water, room temperature, read-out: Solubility) | solubility (water, 100 °C, water, solvent water, 10 mg/mL, high temperature, read-out: Solubility HT (10 mg/mL): Sol. HT) | solubility (water, 100 °C, water, water, high temperature, read-out: Solubility)
96.6 °C: Solubility HT (100 mg/mL): Clear point (solvent toluene, 100 mg/mL)
75 °C: Solubility HT (20 mg/mL): Clear point (solvent acetonitrile, 20 mg/mL)
34 °C: Solubility HT (10 mg/mL): Clear point (solvent ethanol, 10 mg/mL) | Solubility HT (20 mg/mL): Clear point (solvent ethanol, 20 mg/mL)
111000 to 125000 µg/mL: solubility at 15 min (THF, organic solvent or mixture, THF, read-out: Solubility) | solubility at 15 min (tetrahydrofuran, organic solvent or mixture, solvent tetrahydrofuran, room temperature, read-out: Solubility at RT)
74.8 °C: Solubility HT (100 mg/mL): Clear point [3]
74.4 °C: Solubility HT (100 mg/mL): Clear point (solvent 2-propanol, 100 mg/mL) | Solubility HT (100 mg/mL): Clear point [2]
10000 µg/mL: solubility at 15 min (2-propanol, organic solvent or mixture, 2-propanol, room temperature, read-out: Solubility) | solubility at 15 min (2-propanol, organic solvent or mixture, solvent 2-propanol, room temperature, read-out: Solubility at RT) | solubility at 15 min (4-met-2-pentanone, organic solvent or mixture, 4-met-2-pentanone, room temperature, read-out: Solubility) | solubility at 15 min (acetone, organic solvent or mixture, acetone, room temperature, read-out: Solubility) | solubility at 15 min (acetone, organic solvent or mixture, solvent acetone, room temperature, read-out: Solubility at RT) | solubility at 15 min (butyl acetate, organic solvent or mixture, butyl acetate, room temperature, read-out: Solubility) | solubility at 15 min (butyl acetate, organic solvent or mixture, solvent butyl acetate, room temperature, read-out: Solubility at RT) | solubility at 15 min (butyl methyl ether, organic solvent or mixture, solvent butyl methyl ether, room temperature, read-out: Solubility at RT) | solubility at 15 min (ethanol, organic solvent or mixture, ethanol, room temperature, read-out: Solubility) | solubility at 15 min (ethanol, organic solvent or mixture, solvent ethanol, room temperature, read-out: Solubility at RT) | solubility at 15 min (ethyl acetate, organic solvent or mixture, ethyl acetate, room temperature, read-out: Solubility) | solubility at 15 min (ethyl acetate, organic solvent or mixture, solvent ethyl acetate, room temperature, read-out: Solubility at RT) | solubility at 15 min (methyl isobutyl ketone (4-methyl-2-pentanone), organic solvent or mixture, solvent methyl isobutyl ketone (4-methyl-2-pentanone), room temperature, read-out: Solubility at RT) | solubility at 15 min (toluene, organic solvent or mixture, solvent toluene, room temperature, read-out: Solubility at RT) | solubility at 15 min (toluene, organic solvent or mixture, toluene, room temperature, read-out: Solubility)
50.6 °C: Solubility HT (20 mg/mL): Clear point (solvent 2-propanol, 20 mg/mL)
200000 to 250000 µg/mL: solubility at 15 min (dimethylformamide (stored as limethylformamide), organic solvent or mixture, solvent limethylformamide, room temperature, read-out: Solubility at RT)
25 °C: Solubility HT (100 mg/mL): Cloudy point [1] | Solubility HT (100 mg/mL): Cloudy point (solvent toluene, 100 mg/mL)
84 °C: Solubility HT (200 mg/mL): Clear Point [4]
49.2 °C: Solubility HT (20 mg/mL): Clear point (solvent ethyl acetate, 20 mg/mL)
< 50000 µg/mL: solubility (acetone, organic solvent or mixture, acetone, high temperature, read-out: Solubility)
38 °C: Solubility HT (20 mg/mL): Clear point (solvent acetone, 20 mg/mL) | Solubility HT (10 mg/mL): Clear point (solvent ethyl acetate, 10 mg/mL)
17000 to 20000 µg/mL: solubility at 15 min (methanol, organic solvent or mixture, methanol, read-out: Solubility) | solubility at 15 min (methanol, organic solvent or mixture, solvent methanol, room temperature, read-out: Solubility at RT)
YES: Solubility HT (10 mg/mL): Sol. HT (solvent 2-propanol, 10 mg/mL, high temperature) | Solubility HT (20 mg/mL): Sol. HT (solvent 2-propanol, 20 mg/mL, high temperature) | Solubility HT (20 mg/mL): Re-PPT (solvent 2-propanol, 20 mg/mL, on cooling) | Solubility HT (100 mg/mL): Sol. HT (solvent 2-propanol, 100 mg/mL, high temperature) | Solubility HT (100 mg/mL): Re-PPT (solvent 2-propanol, 100 mg/mL, on cooling) | Solubility HT (10 mg/mL): Sol. HT (solvent acetone, 10 mg/mL, high temperature) | Solubility HT (20 mg/mL): Re-PPT after 18 hours at −20° C. (solvent acetone, 20 mg/mL) | Solubility HT (20 mg/mL): Sol. HT (solvent acetone, 20 mg/mL, high temperature) | Solubility HT (10 mg/mL): Sol. HT (solvent acetonitrile, 10 mg/mL, high temperature) | Solubility HT (10 mg/mL): Re-PPT (solvent acetonitrile, 10 mg/mL, on cooling) | Solubility HT (20 mg/mL): Sol. HT (solvent acetonitrile, 20 mg/mL, high temperature) | Solubility HT (20 mg/mL): Re-PPT (solvent acetonitrile, 20 mg/mL, on cooling) | Solubility HT (10 mg/mL): Sol. HT (solvent butyl acetate, 10 mg/mL, high temperature) | Solubility HT (20 mg/mL): Sol. HT (solvent butyl acetate, 20 mg/mL, high temperature) | Solubility HT (100 mg/mL): Sol. HT (solvent butyl acetate, 100 mg/mL, high temperature) | Solubility HT (100 mg/mL): Re-PPT (solvent butyl acetate, 100 mg/mL, on cooling) | Solubility HT (10 mg/mL): Sol. HT (solvent ethanol, 10 mg/mL, high temperature) | Solubility HT (20 mg/mL): Sol. HT (solvent ethanol, 20 mg/mL, high temperature) | Solubility HT (20 mg/mL): Re-PPT (solvent ethanol, 20 mg/mL, on cooling) | Solubility HT (100 mg/mL): Sol. HT (solvent ethanol, 100 mg/mL, high temperature) | Solubility HT (100 mg/mL): Re-PPT (solvent ethanol, 100 mg/mL, on cooling) | Solubility HT (10 mg/mL): Sol. HT (solvent ethyl acetate, 10 mg/mL, high temperature) | Solubility HT (20 mg/mL): Sol. HT (solvent ethyl acetate, 20 mg/mL, high temperature) | Solubility HT (100 mg/mL): Sol. HT (solvent ethyl acetate, 100 mg/mL, high temperature) | Solubility HT (100 mg/mL): Re-PPT (solvent ethyl acetate, 100 mg/mL, on cooling) | Solubility HT (10 mg/mL): Sol. HT (solvent methyl isobutyl ketone (4-methyl-2-pentanone), 10 mg/mL, high temperature) | Solubility HT (20 mg/mL): Sol. HT (solvent methyl isobutyl ketone (4-methyl-2-pentanone), 20 mg/mL, high temperature) | Solubility HT (100 mg/mL): Re-PPT after 18 hours at −20° C. [3] | Solubility HT (100 mg/mL): Sol. HT (solvent methyl isobutyl ketone (4-methyl-2-pentanone), 100 mg/mL, high temperature) | Solubility HT (200 mg/mL): Sol. HT (solvent methyl isobutyl ketone (4-methyl-2-pentanone), 200 mg/mL, high temperature) | Solubility HT (200 mg/mL): Re-PPT (solvent methyl isobutyl ketone (4-methyl-2-pentanone), 200 mg/mL, on cooling) | Solubility HT (10 mg/mL): Sol. HT (solvent toluene, 10 mg/mL, high temperature) | Solubility HT (20 mg/mL): Sol. HT (solvent toluene, 20 mg/mL, high temperature) | Solubility HT (100 mg/mL): Sol. HT (solvent toluene, 100 mg/mL, high temperature) | Solubility HT (100 mg/mL): Re-PPT (solvent toluene, 100 mg/mL, on cooling)
250000 to 500000 µg/mL: solubility at 15 min (DMF, organic solvent or mixture, DMF, read-out: Solubility)
49.3 °C: Solubility HT (20 mg/mL): Clear point (solvent methyl isobutyl ketone (4-methyl-2-pentanone), 20 mg/mL)
30 °C: Solubility HT (10 mg/mL): Clear point (solvent acetone, 10 mg/mL)
< 100000 µg/mL: solubility (acetone, organic solvent or mixture, solvent acetone, 100 mg/mL, high temperature, read-out: Solubility HT (100 mg/mL): Sol. HT) | solubility (acetonitrile, organic solvent or mixture, solvent acetonitrile, 100 mg/mL, high temperature, read-out: Solubility HT (100 mg/mL): Sol. HT)
100000 to 200000 µg/mL: solubility (4-met-2-pentanone, organic solvent or mixture, 4-met-2-pentanone, high temperature, read-out: Solubility)
54.2 °C: Solubility HT (100 mg/mL): Cloudy point [2]
50 °C: Solubility HT (10 mg/mL): Clear point (solvent butyl acetate, 10 mg/mL)
20000 to 100000 µg/mL: solubility (2-propanol, organic solvent or mixture, 2-propanol, high temperature, read-out: Solubility) | solubility (acetonitrile, organic solvent or mixture, acetonitrile, high temperature, read-out: Solubility) | solubility (butyl acetate, organic solvent or mixture, butyl acetate, high temperature, read-out: Solubility) | solubility (ethanol, organic solvent or mixture, ethanol, high temperature, read-out: Solubility) | solubility (ethyl acetate, organic solvent or mixture, ethyl acetate, high temperature, read-out: Solubility) | solubility (toluene, organic solvent or mixture, toluene, high temperature, read-out: Solubility)
56 °C: Solubility HT (10 mg/mL): Clear point (solvent acetonitrile, 10 mg/mL)
43.9 °C: Solubility HT (100 mg/mL): Cloudy point (solvent 2-propanol, 100 mg/mL)
39.7 °C: Solubility HT (100 mg/mL): Cloudy point (solvent ethanol, 100 mg/mL)
48.5 °C: Solubility HT (200 mg/mL): Cloudy point [4]

Reference: patent publication US20250066286A1, “COMPOSITIONS OF (Z)-ENDOXIFEN AND METHODS OF ENRICHMENT THEREOF” (Atossa Therapeutics, Inc., priority 2022, published 2025)
